Results from PubChem BioAssay AID330 (DTP/NCI, 2004).
“And” between values parts separate entries of the source, which are not always exact repeats. Equal entries are not always repeated. Inconclusive results and toxic doses are left out.

Test system: P388 leukemia ip, CD2F1 mice, survival T/C
Test: NCI In Vivo Anticancer Drug Screen. Data for tumor model P388 Leukemia (intraperitoneal) in CD2F1 (CDF1) mice
Details: endpoint: median survival time, higher = longer survival
Procedure, shortened: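 Mice carrying the transplanted tumor received test compound or vehicle. Survival was recorded in each group, and the value is the treated-group measurement divided by that of the vehicle-treated control group.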

[1] = dose: 60.0 mg/kg/injection, schedule: Q01DX005 (ip), vehicle: Klucel (hydroxypropylcellulose) (HPC)
[2] = dose: 120.0 mg/kg/injection, schedule: Q01DX005 (ip), vehicle: Klucel (hydroxypropylcellulose) (HPC)
[3] = dose: 60.0 mg/kg/injection, schedule: Q01DX005 (ip), vehicle: saline with Tween-80
[4] = dose: 120.0 mg/kg/injection, schedule: Q01DX005 (ip), vehicle: saline with Tween-80
[5] = dose: 50.0 mg/kg/injection, schedule: Q01DX009 (ip), vehicle: saline
[6] = dose: 50.0 mg/kg/injection, schedule: Q01DX005 (ip), vehicle: Klucel (hydroxypropylcellulose) (HPC)
[7] = dose: 100.0 mg/kg/injection, schedule: Q01DX005 (ip), vehicle: Klucel (hydroxypropylcellulose) (HPC)
[8] = dose: 200.0 mg/kg/injection, schedule: Q01DX005 (ip), vehicle: Klucel (hydroxypropylcellulose) (HPC)
[9] = dose: 240.0 mg/kg/injection, schedule: Q01DX005 (ip), vehicle: saline with Tween-80
[10] = dose: 6.25 mg/kg/injection, schedule: Q01DX009 (ip), vehicle: water
[11] = dose: 50.0 mg/kg/injection, schedule: Q01DX005 (ip), vehicle: saline with Tween-80
[12] = dose: 100.0 mg/kg/injection, schedule: Q01DX005 (ip), vehicle: saline with Tween-80

## CCCNCC(O)COc1ccc2c3c(c(=O)oc2c1)CCC3 (stereo not given)
[1]
  T/C: 96 % of control
[2]
  T/C: 96 % of control

## CC(=O)Nc1ccc(/C=C2/C(=O)ON=C2C)cc1
[3]
  T/C: 116 % of control
[4]
  T/C: 116 % of control

## [Pd].c1ccc([PH+](CC[PH+](c2ccccc2)c2ccccc2)c2ccccc2)cc1.c1ccc([PH+](CC[PH+](c2ccccc2)c2ccccc2)c2ccccc2)cc1
dose: 30.0 mg/kg/injection, schedule: Q01DX005 (ip), vehicle: saline with Tween-80
  T/C: 99 % of control

## C[CH2][Sn]([Br])([CH2]C)[c]1ccccc1CN(C)C
dose: 12.5 mg/kg/injection, schedule: Q01DX009 (ip), vehicle: saline
  T/C: 100 % of control and 114 % of control
dose: 25.0 mg/kg/injection, schedule: Q01DX009 (ip), vehicle: saline
  T/C: 100 % of control and 114 % of control
[5]
  T/C: 117 % of control and 124 % of control

## COc1cccc(OC(=O)c2ccc(OC)c(C3=CC(=O)C=CC3=O)c2)c1
dose: 100.0 mg/kg/injection, schedule: Q01DX001 (ip), vehicle: Klucel (hydroxypropylcellulose) (HPC)
  T/C: 94 % of control
dose: 200.0 mg/kg/injection, schedule: Q01DX001 (ip), vehicle: Klucel (hydroxypropylcellulose) (HPC)
  T/C: 93 % of control
dose: 400.0 mg/kg/injection, schedule: Q01DX001 (ip), vehicle: Klucel (hydroxypropylcellulose) (HPC)
  T/C: 89 % of control

## COc1cc(C(=O)OC(CN2CCOCC2)Cn2nnc3c(OC)c(OC)c(OC)cc3c2=O)cc(OC)c1OC (stereo not given)
dose: 50.0 mg/kg/injection, schedule: Q01DX009 (ip), vehicle: water
  T/C: 100 % of control
dose: 100.0 mg/kg/injection, schedule: Q01DX009 (ip), vehicle: water
  T/C: 100 % of control
dose: 200.0 mg/kg/injection, schedule: Q01DX009 (ip), vehicle: water
  T/C: 108 % of control

## C=Cc1c(C)c2cc3[nH]c(cc4nc(cc5nc(cc1[nH]2)C(C)=C5CCC(=O)OC)C(CCC(=O)OC)=C4C)c(C)c3C#N
[6]
  T/C: 107 % of control
[7]
  T/C: 109 % of control
[8]
  T/C: 111 % of control

## Cc1ncc(C(=O)O)n1C(C)c1ccccc1 (stereo not given)
[3]
  T/C: 108 % of control
[4]
  T/C: 103 % of control
[9]
  T/C: 110 % of control

## O=C1C2=C(Nc3ccccc3N2)OC1c1ccc(Cl)cc1 (stereo not given)
dose: 7.5 mg/kg/injection, schedule: Q01DX005 (ip), vehicle: Klucel (hydroxypropylcellulose) (HPC)
  T/C: 103 % of control
dose: 15.0 mg/kg/injection, schedule: Q01DX005 (ip), vehicle: Klucel (hydroxypropylcellulose) (HPC)
  T/C: 101 % of control
dose: 30.0 mg/kg/injection, schedule: Q01DX005 (ip), vehicle: Klucel (hydroxypropylcellulose) (HPC)
  T/C: 101 % of control

## COc1ccc2ccc(=O)oc2c1C1=C(C)C(=O)OC1
dose: 2.0 mg/kg/injection, schedule: Q01DX009 (ip), vehicle: Klucel (hydroxypropylcellulose) (HPC)
  T/C: 108 % of control
dose: 4.0 mg/kg/injection, schedule: Q01DX009 (ip), vehicle: Klucel (hydroxypropylcellulose) (HPC)
  T/C: 100 % of control
dose: 8.0 mg/kg/injection, schedule: Q01DX009 (ip), vehicle: Klucel (hydroxypropylcellulose) (HPC)
  T/C: 98 % of control
dose: 16.0 mg/kg/injection, schedule: Q01DX009 (ip), vehicle: Klucel (hydroxypropylcellulose) (HPC)
  T/C: 108 % of control

## CCCCCCCCCCCCCCCC[N+](C)(C)CCNC(=O)c1ccccc1
dose: 3.12 mg/kg/injection, schedule: Q01DX009 (ip), vehicle: water
  T/C: 101 % of control
[10]
  T/C: 106 % of control
dose: 12.5 mg/kg/injection, schedule: Q01DX009 (ip), vehicle: water
  T/C: 99 % of control and 101 % of control

## O=c1nc(N2CCCC2)oc2cc3ccccc3cc12
[1]
  T/C: 95 % of control
[2]
  T/C: 98 % of control
dose: 240.0 mg/kg/injection, schedule: Q01DX005 (ip), vehicle: Klucel (hydroxypropylcellulose) (HPC)
  T/C: 95 % of control

## Cc1ccc2c(c1)-c1nc(N)ncc1C(O)O2 (stereo not given)
dose: 100.0 mg/kg/injection, schedule: Q04DX003 (ip), vehicle: saline
  T/C: 110 % of control
dose: 200.0 mg/kg/injection, schedule: Q04DX003 (ip), vehicle: saline
  T/C: 96 % of control
dose: 400.0 mg/kg/injection, schedule: Q04DX003 (ip), vehicle: saline
  T/C: 100 % of control

## Cc1cc(O)c(C=O)c2c1C(=O)Oc1c(COC(=O)/C=C/C(=O)O)c(O)c(C(=O)O)c(C)c1O2
dose: 0.25 mg/kg/injection, schedule: Q01DX009 (ip), vehicle: saline with Tween-80
  T/C: 104 % of control
dose: 0.5 mg/kg/injection, schedule: Q01DX009 (ip), vehicle: saline with Tween-80
  T/C: 96 % of control
dose: 1.0 mg/kg/injection, schedule: Q01DX009 (ip), vehicle: saline with Tween-80
  T/C: 101 % of control
[5]
  T/C: 90 % of control
dose: 100.0 mg/kg/injection, schedule: Q01DX009 (ip), vehicle: saline
  T/C: 90 % of control

## CC(=O)c1ccc(NN=NCCF)cc1
dose: 1.56 mg/kg/injection, schedule: Q01DX009 (ip), vehicle: water
  T/C: 107 % of control
[10]
  T/C: 154 % of control
dose: 12.5 mg/kg/injection, schedule: Q01DX009 (ip), vehicle: distilled water + Tween-80
  T/C: 271 % of control

## CC([NH-])CC(C)[NH-].[Cl][Pt+2][Cl] (stereo not given)
dose: 0.78 mg/kg/injection, schedule: Q04DX002 (ip), vehicle: saline with Tween-80
  T/C: 119 % of control

## CC1=N[N+](C)(C)C([O-])=C1C
[11]
  T/C: 103 % of control
[12]
  T/C: 97 % of control
dose: 200.0 mg/kg/injection, schedule: Q01DX005 (ip), vehicle: saline with Tween-80
  T/C: 100 % of control

## CCCC(=O)OCC1OC(n2cnc3c(=S)nc[nH]c32)C(OC(=O)CCC)C1OC(=O)CCC (stereo not given)
dose: 6.25 mg/kg/injection, schedule: Q01DX009 (ip), vehicle: saline with Tween-80
  T/C: 116 % of control
dose: 12.5 mg/kg/injection, schedule: Q01DX009 (ip), vehicle: saline with Tween-80
  T/C: 112 % of control
dose: 25.0 mg/kg/injection, schedule: Q01DX009 (ip), vehicle: saline with Tween-80
  T/C: 112 % of control
dose: 50.0 mg/kg/injection, schedule: Q01DX009 (ip), vehicle: saline with Tween-80
  T/C: 116 % of control

## C=C[C@]1(C)C[C@@H](OC(=O)CO)[C@@]2(C)[C@H](C)CC[C@]3(CCC(=O)[C@H]32)[C@@H](C)[C@@H]1O
dose: 12.5 mg/kg/injection, schedule: Q01DX009 (ip), vehicle: Klucel (hydroxypropylcellulose) (HPC)
  T/C: 101 % of control
dose: 25.0 mg/kg/injection, schedule: Q01DX009 (ip), vehicle: Klucel (hydroxypropylcellulose) (HPC)
  T/C: 97 % of control
dose: 50.0 mg/kg/injection, schedule: Q01DX009 (ip), vehicle: Klucel (hydroxypropylcellulose) (HPC)
  T/C: 101 % of control and 108 % of control and 94 % of control
dose: 150.0 mg/kg/injection, schedule: Q01DX009 (ip), vehicle: Klucel (hydroxypropylcellulose) (HPC)
  T/C: 100 % of control and 95 % of control
dose: 200.0 mg/kg/injection, schedule: Q01DX009 (ip), vehicle: Klucel (hydroxypropylcellulose) (HPC)
  T/C: 104 % of control and 107 % of control
dose: 400.0 mg/kg/injection, schedule: Q01DX009 (ip), vehicle: Klucel (hydroxypropylcellulose) (HPC)
  T/C: 107 % of control

## O=C1NC(=O)C2(OC3c4ccccc4C=NN3C3=C2C(=O)CCC3)C(=O)N1 (stereo not given)
[1]
  T/C: 98 % of control
[2]
  T/C: 97 % of control

## CC(=O)OCC(OC(C)=O)C(OC(C)=O)C(OC(C)=O)C(C#N)OC(C)=O (stereo not given)
dose: 100.0 mg/kg/injection, schedule: Q01DX009 (ip), vehicle: saline with Tween-80
  T/C: 91 % of control
dose: 200.0 mg/kg/injection, schedule: Q01DX009 (ip), vehicle: saline with Tween-80
  T/C: 87 % of control
dose: 400.0 mg/kg/injection, schedule: Q01DX009 (ip), vehicle: saline with Tween-80
  T/C: 91 % of control
dose: 600.0 mg/kg/injection, schedule: Q01DX009 (ip), vehicle: saline with Tween-80
  T/C: 87 % of control

## CCN1CCC(Nc2ccnc3cc(Cl)ccc23)CC1
[6]
  T/C: 99 % of control
[11]
  T/C: 104 % of control
[7]
  T/C: 94 % of control
[12]
  T/C: 110 % of control

## C(=N\NC1=NCCN1)/c1ccncc1
dose: 50.0 mg/kg/injection, schedule: Q01DX005 (ip), vehicle: saline
  T/C: 100 % of control
dose: 100.0 mg/kg/injection, schedule: Q01DX005 (ip), vehicle: saline
  T/C: 94 % of control

## COc1ccc(CCN2C(=O)CCC3=C2CCCC3=O)cc1OC
dose: 25.0 mg/kg/injection, schedule: Q01DX005 (ip), vehicle: Klucel (hydroxypropylcellulose) (HPC)
  T/C: 102 % of control
[6]
  T/C: 100 % of control
[7]
  T/C: 102 % of control
[8]
  T/C: 100 % of control

## O=S1(=O)c2ccccc2N(c2ccccc2)C2=NCCN21
[3]
  T/C: 91 % of control
[4]
  T/C: 99 % of control
[9]
  T/C: 97 % of control

## OC(Cc1nc2ccccc2s1)(C(F)(F)F)C(F)(F)F
dose: 100.0 mg/kg/injection, schedule: Q04DX003 (ip), vehicle: saline with Tween-80
  T/C: 100 % of control
dose: 200.0 mg/kg/injection, schedule: Q04DX003 (ip), vehicle: saline with Tween-80
  T/C: 95 % of control
dose: 400.0 mg/kg/injection, schedule: Q04DX003 (ip), vehicle: saline with Tween-80
  T/C: 95 % of control
